{"source": "patent US10386360B2", "about": "“Bio-microelectromechanical system transducer and associated methods” (University of Central Florida Research Foundation, Inc., priority 2009, dated 2019)", "system": "contractile myotubes", "assay": "Veratridine added to electrically stimulated myotubes on microcantilevers, AFM laser detection", "format": "cell-based, rat", "parameters": "dose or concentration left out as unconfirmed", "conditions": "myotubes 10 days in culture, 1 Hz stimulus, veratridine final concentration", "description": "Skeletal muscle was dissected from the hind limb thighs of a rat fetus at embryonic day 18 (Charles River Laboratories, Wilmington, Mass.) according to a previously published protocol with some modification. Tissue samples were collected in a sterile 15-ml centrifuge tube containing 1 ml of calcium and magnesium free phosphate buffered saline (PBS). Tissue samples were enzymatically disassociated using 3 ml of 0.05% of trypsin-EDTA (Invitrogen, Carlsbad, Calif.) solution for 60 min in a 37° C. water bath with agitation of 100 rpm. After 60 min, the trypsin solution was removed and 6 ml of L15 media (Invitrogen, Carlsbad, Calif.) containing 10% fetal bovine serum (FBS) was added to terminate the trypsin action. The tissue was then mechanically triturated using a sterile narrow bore Pasteur pipette, allowed to settle for 3 min, and transferred to a 15-ml centrifuge tube. This was repeated three times. The dissociated tissue was then centrifuged at 300 g for 10 minutes at 4° C. on 6 ml of a 4% (wt/vol) cushion of bovine serum albumin (BSA). The pellet was resuspended in 10 ml L15+10% FBS and plated in uncoated 100-mm Petri dishes for 20-30 min depending on the amount of tissue, to allow contaminating fibroblasts to settle out. After 20-30 minutes the supernatant was layered on 6 ml of a 4% BSA cushion, and centrifuged at 300 g for 10 min at 4° C. […]", "note": "“Also recorded” adds a separate entry of the source."}
{"compound": "COc1ccc(C(=O)O[C@H]2CC[C@@]3(C)[C@@H]4CC[C@H]5[C@]6(O)C[C@H](O)[C@@]7(O)[C@@H](CN8C[C@@H](C)CC[C@H]8[C@@]7(C)O)[C@]6(O)C[C@@]53O[C@]24O)cc1OC", "note": "[veratridine]", "values": [{"measurement": "ability to contract after the initial tetanic contraction", "result": "lost the ability to contract further; also recorded: lost the ability to further contract"}]}
